Measured values reported in ChEMBL document CHEMBL1133362, “Discovery and evaluation of potent, cysteine-based alpha4beta1 integrin antagonists” (Bioorg Med Chem Lett, 2000).

target: Integrin alpha-4/beta-1 (Homo sapiens, UniProt P05556+P13612); assay: Inhibition of VCAM (vascular cell adhesion molecule) adhesion to alpha4-beta1 integrin of leukocyte cells; assay type: functional, cell-based
Sequence (P05556 whole entry): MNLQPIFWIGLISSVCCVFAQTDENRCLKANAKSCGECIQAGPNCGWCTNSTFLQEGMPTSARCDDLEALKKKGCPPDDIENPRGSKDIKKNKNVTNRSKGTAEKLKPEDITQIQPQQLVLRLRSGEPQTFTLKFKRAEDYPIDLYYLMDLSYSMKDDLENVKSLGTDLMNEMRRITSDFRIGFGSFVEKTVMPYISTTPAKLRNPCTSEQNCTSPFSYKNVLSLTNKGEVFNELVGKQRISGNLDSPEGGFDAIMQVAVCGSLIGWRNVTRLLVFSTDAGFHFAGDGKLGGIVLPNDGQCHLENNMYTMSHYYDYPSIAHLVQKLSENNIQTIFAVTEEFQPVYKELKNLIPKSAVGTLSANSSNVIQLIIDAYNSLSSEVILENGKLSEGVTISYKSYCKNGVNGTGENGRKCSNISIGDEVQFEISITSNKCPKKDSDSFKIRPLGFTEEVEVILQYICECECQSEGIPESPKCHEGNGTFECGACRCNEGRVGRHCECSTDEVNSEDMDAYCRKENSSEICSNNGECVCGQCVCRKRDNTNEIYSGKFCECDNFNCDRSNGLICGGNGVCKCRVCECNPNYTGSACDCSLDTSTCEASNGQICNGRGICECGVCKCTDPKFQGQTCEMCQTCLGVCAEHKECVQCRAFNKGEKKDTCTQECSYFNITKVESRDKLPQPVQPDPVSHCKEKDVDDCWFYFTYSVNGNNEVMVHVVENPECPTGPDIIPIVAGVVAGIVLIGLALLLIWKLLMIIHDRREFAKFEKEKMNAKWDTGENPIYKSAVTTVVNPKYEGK
Sequence (P13612 whole entry): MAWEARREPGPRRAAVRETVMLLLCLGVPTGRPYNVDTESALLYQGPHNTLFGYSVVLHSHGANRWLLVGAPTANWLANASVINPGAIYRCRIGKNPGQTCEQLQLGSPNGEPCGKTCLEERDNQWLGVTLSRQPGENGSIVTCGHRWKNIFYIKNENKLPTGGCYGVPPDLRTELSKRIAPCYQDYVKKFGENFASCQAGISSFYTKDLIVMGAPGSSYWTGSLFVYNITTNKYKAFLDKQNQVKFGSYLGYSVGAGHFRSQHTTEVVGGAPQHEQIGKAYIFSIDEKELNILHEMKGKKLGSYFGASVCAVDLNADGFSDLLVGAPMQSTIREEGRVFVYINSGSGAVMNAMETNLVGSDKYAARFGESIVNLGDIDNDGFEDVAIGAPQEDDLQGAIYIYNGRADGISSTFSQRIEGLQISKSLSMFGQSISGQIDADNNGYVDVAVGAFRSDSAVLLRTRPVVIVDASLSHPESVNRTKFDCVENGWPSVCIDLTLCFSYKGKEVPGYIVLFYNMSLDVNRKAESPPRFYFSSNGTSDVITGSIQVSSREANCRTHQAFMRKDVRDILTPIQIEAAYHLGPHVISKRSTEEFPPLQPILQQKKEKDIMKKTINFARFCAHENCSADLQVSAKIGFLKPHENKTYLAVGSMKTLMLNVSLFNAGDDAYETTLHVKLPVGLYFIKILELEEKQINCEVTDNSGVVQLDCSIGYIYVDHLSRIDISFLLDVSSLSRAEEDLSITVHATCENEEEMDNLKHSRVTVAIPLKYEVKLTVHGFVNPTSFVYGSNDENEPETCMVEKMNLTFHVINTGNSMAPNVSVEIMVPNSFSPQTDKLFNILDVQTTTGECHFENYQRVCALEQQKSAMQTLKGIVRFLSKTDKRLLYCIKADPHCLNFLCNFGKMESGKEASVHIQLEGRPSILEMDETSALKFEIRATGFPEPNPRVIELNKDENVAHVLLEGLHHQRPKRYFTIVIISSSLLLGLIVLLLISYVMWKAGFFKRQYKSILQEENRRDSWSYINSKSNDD

Compound | IC50 [nM]
O=C(O)[C@H](CSSCCNC(=O)C12CC3CC(CC(C3)C1)C2)NC(=O)C12CC3CC(CC(C3)C1)C2 | 4100
O=C(O)C[C@H]1CN2CCCC[C@H]2C(=O)N[C@H](C(=O)O)CSSC[C@H](NC(=O)C23CC4CC(CC(C4)C2)C3)C(=O)N1 | 12
O=C(O)C[C@H]1CN2CSC[C@H]2C(=O)N[C@H](C(=O)O)CSSC[C@H](NC(=O)C23CC4CC(CC(C4)C2)C3)C(=O)N1 | 47
CC(=O)N1CSC[C@H]1C(=O)N[C@@H](CSSCCNC(=O)C12CC3CC(CC(C3)C1)C2)C(=O)O | 280
COC(=O)[C@H](CSSC[C@H](NC(=O)[C@@H]1CCCN1C(C)=O)C(=O)O)NC(=O)C12CC3CC(CC(C3)C1)C2 | 25200
O=C(O)C[C@H]1CN2CCC[C@H]2C(=O)N[C@H](C(=O)O)CSSC[C@H](NC(=O)C23CC4CC(CC(C4)C2)C3)C(=O)N1 | 170
CC(=O)N1CCC[C@H]1C(=O)N[C@@H](CSSCCNC(=O)C12CC3CC(CC(C3)C1)C2)C(=O)O | 2340
COC(=O)[C@H](CSSC[C@H](NC(=O)C12CC3CC(CC(C3)C1)C2)C(=O)OC)NC(=O)C12CC3CC(CC(C3)C1)C2 | > 800000

The remaining compounds from weak to strong by IC50, led by results:

IC50 [nM] | Compound
7300 | O=C(O)[C@H](CSSC[C@H](NC(=O)C12CC3CC(CC(C3)C1)C2)C(=O)O)NC(=O)C12CC3CC(CC(C3)C1)C2
5100 | COC(=O)[C@H](CSSC[C@H](NC(=O)C12CC3CC(CC(C3)C1)C2)C(=O)O)NC(=O)C12CC3CC(CC(C3)C1)C2
425 | CC(=O)N1CCCC[C@H]1C(=O)N[C@@H](CSSCCNC(=O)C12CC3CC(CC(C3)C1)C2)C(=O)O
330 | C[C@H]1CN2CCC[C@H]2C(=O)N[C@H](C(=O)O)CSSC[C@H](NC(=O)C23CC4CC(CC(C4)C2)C3)C(=O)N1
